Measurements reported in PubChem BioAssay (NCI).
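In this assay, cells in 96-well plates receive the compound at five concentrations for 48 hours. Endpoints are linearly interpolated between the surrounding concentrations. Abbreviation: GI50, concentration required for 50% inhibition of growth. The concentration for full growth arrest is given as TGI.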

Tests used:
Assay in all cases: NCI tumour cell line growth inhibition, 48 h
786-0 renal = system: 786-0 renal
A498 renal = system: A498 renal
A549 NSCLC = system: A549 NSCLC
ACHN renal = system: ACHN renal
BT-549 breast = system: BT-549 breast
CAKI-1 renal = system: CAKI-1 renal
CCRF-CEM leukemia = system: CCRF-CEM leukemia
COLO 205 colon = system: COLO 205 colon
DU-145 prostate = system: DU-145 prostate
EKVX NSCLC = system: EKVX NSCLC
HCC-2998 colon = system: HCC-2998 colon
HCT-116 colon = system: HCT-116 colon
HCT-15 colon = system: HCT-15 colon
HL-60(TB) leukemia = system: HL-60(TB) leukemia
HOP-62 NSCLC = system: HOP-62 NSCLC
HOP-92 NSCLC = system: HOP-92 NSCLC
HS 578T breast = system: HS 578T breast
HT29 colon = system: HT29 colon
IGROV1 ovarian = system: IGROV1 ovarian
K-562 leukemia = system: K-562 leukemia
KM12 colon = system: KM12 colon
LOX IMVI melanoma = system: LOX IMVI melanoma
M14 melanoma = system: M14 melanoma
MALME-3M melanoma = system: MALME-3M melanoma
MCF7 breast = system: MCF7 breast
MDA-MB-231 breast = system: MDA-MB-231 breast
MDA-MB-435 = system: MDA-MB-435
MOLT-4 leukemia = system: MOLT-4 leukemia
NCI-H226 lung = system: NCI-H226 lung

`CC(C)C(=O)Nc1ccc(-c2nc(-c3cccc(O)c3)c(-c3ccnc(Br)c3)[nH]2)cc1` was tested, and the GI50 (786-0 renal) was 0.718 µM, the TGI (786-0 renal) was 7.63 µM and the GI50 (A498 renal) was 0.957 µM. For the same molecule, the TGI (A498 renal) was 5.55 µM, the GI50 (A549 NSCLC) was 1.64 µM and the TGI (A549 NSCLC) was 23.6 µM. It also gave a GI50 (ACHN renal) of 1.7 µM, a TGI (ACHN renal) of 26.6 µM and a GI50 (BT-549 breast) of 1.09 µM. The TGI (BT-549 breast) was 7.25 µM, the GI50 (CAKI-1 renal) was 0.932 µM and the TGI (CAKI-1 renal) was 9.12 µM. It also gave a GI50 (CCRF-CEM leukemia) of 0.653 µM, a TGI (CCRF-CEM leukemia) of over 100 µM and a GI50 (COLO 205 colon) of 1.47 µM. It also gave a TGI (COLO 205 colon) of 6.94 µM, a GI50 (DU-145 prostate) of 2.54 µM and a TGI (DU-145 prostate) of 41.3 µM. It also gave a GI50 (EKVX NSCLC) of 1.84 µM, a TGI (EKVX NSCLC) of 25.6 µM and a GI50 (HCC-2998 colon) of 1.38 µM. It also gave a TGI (HCC-2998 colon) of 6.71 µM, a GI50 (HCT-116 colon) of 0.905 µM and a TGI (HCT-116 colon) of 7.68 µM. The GI50 (HCT-15 colon) was 1.26 µM, the TGI (HCT-15 colon) was 9.76 µM and the GI50 (HL-60(TB) leukemia) was 0.768 µM. For the same molecule, the TGI (HL-60(TB) leukemia) was 2.74 µM, the GI50 (HOP-62 NSCLC) was 1.82 µM and the TGI (HOP-62 NSCLC) was 35.2 µM. The GI50 (HOP-92 NSCLC) was 2.17 µM, the TGI (HOP-92 NSCLC) was 7.27 µM and the GI50 (HS 578T breast) was 0.592 µM. The TGI (HS 578T breast) was 2.32 µM, the GI50 (HT29 colon) was 1.4 µM and the TGI (HT29 colon) was over 60.1 µM. For the same molecule, the GI50 (IGROV1 ovarian) was 0.962 µM, the TGI (IGROV1 ovarian) was 5.83 µM and the GI50 (K-562 leukemia) was 0.601 µM. It also gave a TGI (K-562 leukemia) of over 100 µM, a GI50 (KM12 colon) of 1.29 µM and a TGI (KM12 colon) of 21.7 µM. The GI50 (LOX IMVI melanoma) was 0.404 µM, the TGI (LOX IMVI melanoma) was 5.71 µM and the GI50 (M14 melanoma) was 0.764 µM. The TGI (M14 melanoma) was 8.13 µM, the GI50 (MALME-3M melanoma) was 0.919 µM and the TGI (MALME-3M melanoma) was 4.9 µM. The GI50 (MCF7 breast) was 0.566 µM, the TGI (MCF7 breast) was 4.51 µM and the GI50 (MDA-MB-231 breast) was 1.61 µM. The TGI (MDA-MB-231 breast) was 36.3 µM, the GI50 (MDA-MB-435) was 4.24 µM and the TGI (MDA-MB-435) was 20.6 µM. It also gave a GI50 (MOLT-4 leukemia) of 0.835 µM, a TGI (MOLT-4 leukemia) of 7.98 µM and a GI50 (NCI-H226 lung) of 1.78 µM. For the same molecule, the TGI (NCI-H226 lung) was 8.95 µM.
